In ChEMBL document CHEMBL1649242, “Molecular epidemiology of CTX-M-producing Escherichia coli isolates at a tertiary medical center in western Pennsylvania” (Antimicrob Agents Chemother, 2009):
Activity calls are given as the source filed them. The rule behind the calls is not given here.

Columns and labels:
Type in all cases: functional, organism-based
Escherichia coli [1] = experiment: Antimicrobial activity against TEM-10 ESBL producing Escherichia coli clinical isolate by CLSI disk diffusion assay
Escherichia coli [2] = experiment: Antimicrobial activity against CTX-M ESBL producing Escherichia coli clinical isolate by CLSI disk diffusion assay
Escherichia coli [3] = experiment: Antimicrobial activity against CTX-M-15 ESBL producing Escherichia coli clinical isolate by CLSI disk diffusion assay
Escherichia coli [4] = experiment: Antimicrobial activity against SHV-5 ESBL producing Escherichia coli clinical isolate by CLSI disk diffusion assay
Escherichia coli [5] = experiment: Antimicrobial activity against SHV-7 ESBL producing Escherichia coli clinical isolate by CLSI disk diffusion assay

SMILES: CO/N=C(\C(=O)N[C@@H]1C(=O)N2C(C(=O)O)=C(COC(C)=O)CS[C@H]12)c1csc(N)n1
- Activity (Escherichia coli [1]): Active

SMILES: CC(C)(O/N=C(\C(=O)N[C@@H]1C(=O)N2C(C(=O)[O-])=C(C[n+]3ccccc3)CS[C@H]12)c1csc(N)n1)C(=O)O
- Activity (Escherichia coli [2]): inactive
- Activity (Escherichia coli [3]): inactive
- Activity (Escherichia coli [4]): inactive
- Activity (Escherichia coli [5]): inactive
- Activity (Escherichia coli [1]): inactive
